We go through six molecules from patent US20250283035A1, “MORPHOGENIC COMPOUND-RELEASING MICROSPHERES AND USE IN BIOINK” (UVic Industry Partnerships Inc., priority 2018, published 2025).

Series [1] is described as follows: 46-day purmorphamine release study from PCL microspheres in PBS. Type of series: physicochemical. As to the method: A 46-day release study was performed to determine the release kinetics of purmorphamine. Each sample contained 10 mg of microspheres and 1 ml of PBS placed on 1.5 ml micro tubes (Axygen®). Samples for each day of collection (n=3) were placed on a VWR® mini shaker at 330 rpm at 37° C. and were collected every 4 days. After collection, samples were washed with de-ionized water and freeze-dried for further analysis. The drug was extracted from the microspheres and then quantified with high-performance liquid chromatography (HPLC) to estimate the puro concentration in the microspheres. Next, 10 mg of microspheres was placed in 1.5 ml microtubes in triplicate. […] The samples were then placed on the vortex mixer (Eppendorf® MixMate®) at 2500 rpm for 5 minutes. […] The samples were then placed at −80° C. for 5 minutes followed by centrifugation (Eppendorf 5424) at 1500 rpm for five minutes. The samples were filtered using 0.2 μm PTFE syringe filters before adding the supernatant to amber vials. HPLC was performed using an Agilent 1200 equipped with quaternary pump and diode-array detector (DAD) to quantify the amount of puro present in samples. A standard of puro with eleven dilutions of a stock solution diluted in ACN was used to determine the concentrations of the samples. The column used was an Eclipse Plus C18 (Agilent) with 5 μm particle size, 4.6 mm internal diameter (ID), and was 150-mm long with similar phase and ID guard column. Samples were analyzed at 300 nm after mass spectroscopy was used to generate a spectrum for puro. Mass spectroscopy information was acquired using an Ultimate 3000 HPLC system connected to an Orbitrap (Thermo Fisher Scientific). The system was used in direct infusion mode with no separation. Solvents used for this analysis were HPLC-grade ACN mixed with […] dispensed from a Milli-Q integral purification system (Millipore, ON, Canada). Both contained 0.1% V/V trifluoroacetic acid (TFA) (Fisher Scientific, Hampton, NH). […] ChemStation software was used for data analysis with auto-integration adjusted manually when needed.

The conditions of series [2]: drug in microspheres, literature values, cited from earlier work.
For series [3] the following is noted: ref [50]; cited from earlier work.
The conditions of series [4]: quoted in Example 1 from ref [42]; cited from earlier work.
Series [5] in a line: Guggulsterone encapsulation efficiency (extraction, HPLC-MS). The format is physicochemical. To be noted: PCL microspheres, 0.6 μg/mg GS/PCL; of total GS added. The protocol:
The amount of GS encapsulated per unit weight of microspheres was determined by extracting the drug from the fabricated microspheres. A measured amount of lyophilized microspheres was placed in a 1.5 mL propylene microtube, and 200 μL of ACN was added to each sample. The samples were vortexed at 3000 rpm for 30 seconds, vortexed for 5 minutes at 350 rpm (Eppendorf® MixMate®), and mixed with a micropipette for 10 seconds. These mixing steps were repeated twice to dissolve the PCL. Next, 1000 μL of additional ACN was added to the samples and mixed by micropipette for 10 seconds and then vortexed at 3000 rpm for 30 seconds. The solution was then centrifuged at 22° C. and 13000 rpm for 5 min using an Eppendorf 5424 Microcentrifuge. Thereafter, 1000 μL of the supernatant was transferred to a microtube and diluted as necessary for high performance liquid chromatography-mass spectrometry (HPLC-MS). The concentration of the drug in the sample was determined using HPLC-MS (Ultimate 3000 MSQ, Thermo Scientific with Chromeleon™ software) and run against a GS standard composed of five dilutions of a stock solution composed of GS dissolved in ACN. […]

Series [6] in a line: In vitro guggulsterone release study from PCL microspheres in PBS. The format is physicochemical. As to the method:
In vitro release studies were performed in triplicate. Ten milligrams of microspheres was suspended in 1 mL of PBS in a microtube. The tubes were then loaded onto a Sarstedt Sarmix mr-1 tube rotator and incubated at 37° C. The PBS supernatant for each tube was replaced every 2 days while tubes were removed and collected from the rotator at the following predetermined time points: day 2, 4, 8, 12, 16, 20, 24, 28, 36, and 44. For the collected tubes, the PBS supernatant was removed, and the microspheres were washed with deionized water, lyophilized, and weighed. The remaining GS concentration inside the microspheres was determined as previously described by dissolving microspheres with DCM, extracting the drug/precipitating PCL with 100% ethanol, and reading the absorbance at 255 nm using a Tecan Infinite® M200Pro plate reader (Gomez, et al., 2015). The amount of GS released was calculated by subtracting the GS remaining in the microspheres from the theoretical GS present in each amount of microspheres at day 0. Percentages of the drug that were assumed to be released for each sample day were calculated by comparing drug amounts leftover and initial amounts of the drug inside the microspheres to create a cumulative release graph.

The conditions of series [7]: cited from earlier work.
Series [8] concerns hiPS aggregates. The experiment in a line: Flow cytometry of βIII-tubulin (TUJ1), Olig2, GFAP in hiPS aggregates (Example 2). Type of series: cell-based, human. On the set-up: unit of the concentration uncertain. As to the method: ReLeSR™ was used to select and remove undifferentiated hiPSs from the wells. Uniform hiPS aggregates were formed by adding a single cell suspension in STEMdiff™ Neural Induction Medium of 1×106 hiPSs to wells in AggreWell™ 800 plates and centrifuged for 5 min at 100×g to deposit the cells at the bottom of each microwell. Before incorporation with the cells, the microspheres were sterilized by low power air-plasma treatment (Harrick PDC-32G) for 30 seconds as described previously. When forming microsphere-incorporated hiPS aggregates, 0.5 mg of microspheres suspended in STEMdiff™ Neural Induction Medium was added to each AggreWell™ 800 well for a total of 2 mL of media in each well and centrifuged for 5 min at 100×g (FIGS. 11A-11B). The aggregates in the AggreWell™ 800 plates were maintained in 2 mL of STEMdiff™ Neural Induction Medium with daily media changes for 5 days. On day 5, the aggregates were harvested for immunocytochemistry or transferred to PLO/laminin-coated 24-well plates at a single aggregate per well for the remaining duration of the cell study (until day 12 or day 20). […] Negative control treatments contained aggregates without microspheres and media without soluble drug added. […]
Cell marker expression was quantified with flow cytometry on day 20 for β-tubulin III, Olig-2, and GFAP. […]
(In flow cytometry, cells or beads pass a laser one at a time.)

Series [9] is described as follows: Degradation of fibrin scaffolds containing drug (Example 3).
The test system of series [10] is hiPS aggregates. The experiment in a line: Neurite morphology analysis of hiPS aggregates, IncuCyte (Example 2). The format is cell-based, human. Particulars: day 12. The protocol:
ReLeSR™ was used to select and remove undifferentiated hiPSs from the wells. Uniform hiPS aggregates were formed by adding a single cell suspension in STEMdiff™ Neural Induction Medium of 1×106 hiPSs to wells in AggreWell™ 800 plates and centrifuged for 5 min at 100×g to deposit the cells at the bottom of each microwell. Before incorporation with the cells, the microspheres were sterilized by low power air-plasma treatment (Harrick PDC-32G) for 30 seconds as described previously. […]
Immunostained cell aggregates were imaged with an IncuCyte® ZOOM automatic live-cell imaging system (Essen BioScience, Ann Arbor, MI) at 10× magnification. Quantification of the morphological metrics of neurite length and branch points was performed using IncuCyte® ZOOM Software (2016A). Using the NeuroTrack™ software module, day 12 and day 20 green channel fluorescence (anti-beta-tubulin III positive) images were analyzed by masking the total neurite coverage and calculating the average length and branch points with the same processing definition. The cell aggregate area was analyzed for day 12 images using a NeuroTrack™ software processing definition, whereas a Basic Analyzer processing definition (used for confluence masking) was used to analyze the day 20 images. […]

The conditions of series [11]: cited from earlier work. The source holds these as a separate data set.
[12] abbreviates: if release rate consistent beyond 44 days.

Several values for one entry are separate records, joined by “and”; a condition that tells them apart may be missing. Equal values may be shown once. Read-outs that look alike come from different tables or passages of the source.

As for `c1ccc2c(Oc3nc(Nc4ccc(N5CCOCC5)cc4)c4ncn(C5CCCCC5)c4n3)cccc2c1` [puro, purmorphamine], the cumulative puro release in series [1] (day 28) is 68%; in series [1] (day 44) it was around 87%; in series [1] (day 46, of theoretically encapsulated drug), 91%. For the same molecule, the “puro released on average per day” value in series [1] (from 0.34 mg of puro-loaded microspheres added to cell aggregates) was around 0.0748 µg. For the same molecule, the “puro released every day” value in [1] (from 10 mg of microspheres) amounted to 2.2 µg.
`CC(=O)OCC(=O)[C@@]1(O)CC[C@H]2[C@@H]3CCC4=CC(=O)CC[C@]4(C)[C@H]3[C@@H](O)C[C@@]21C` [hydrocortisone 21-acetate]: in series [2], the “encapsulation efficiency, previously reported” value is on record as around 55%.
As for `O=C1CN=C(c2ccccc2Cl)c2cc([N+](=O)[O-])ccc2N1` [Clonazepam], the “encapsulation efficiency, previously reported” value in series [2] is recorded as 72.6-95.1%.
As for guggulsterone [GS], the susceptibility to degradation result in [3] is listed as “susceptible to degradation, including photodegradation”. The “GS encapsulation efficiency, previously reported” value in series [4] is on record as 42.4%. In series [5], the GS encapsulation efficiency is 42.4±3.5% and ~42%. In addition, the “concentration of GS released” value in series [6] (0.5 mg of microspheres per aggregate-forming well) is around 0.93 ng/mL. Moreover, the “cumulative GS release” value in series [6] (day 28) was around 45%; in series [6] (day 44 (final day), of drug theoretically encapsulated), ~60% and ~62%. Also, in series [6] (from 10 mg of microspheres, slope of graph), the “average release of GS per day” value was determined as 37 ng. The “additional duration of GS delivery beyond 44 days” value in series [6] (setting [12]) turned out to be 27 days. For the same molecule, in [6] (setting [12]), the “total duration of drug release” value is given as 71 days. The “total amount of guggulsterone encapsulated” value in [6] (in 10 mg of microspheres) is on record as around 2550 ng. Besides, the “theoretical total amount of drug initially in each sample” value in [6] (in 10 mg of microspheres, day 0) was around 2.5 µg. For the same molecule, the “cumulative GS release, previously reported” value was 45% in [7] (day 28, quoted in Example 1 from refs [40, 42]) and 55% in [7] (day 44, quoted in Example 1 from refs [40, 42]). Further, the “TUJ1 expression (flow cytometry)” value is around 4% in the series with hiPS aggregates [8] (day 20, soluble GS at 0.25 µM) and around 7% in the series on hiPS aggregates [8] (day 20, soluble GS at 2.5 µM). Also, the “degradation of fibrin scaffolds containing the drug” value in [9] was “degraded much faster than samples containing RA”. For the same molecule, the “neurite length per cell cluster area” value in the series on hiPS aggregates [10] is recorded as “greater neurite length compared to the negative control”.
As to `C[C@]12CCC(=O)C=C1CC[C@@H]1[C@@H]2[C@@H](O)C[C@@]2(C)[C@H]1CC[C@]2(O)C(=O)CO` [hydrocortisone], the “encapsulation efficiency, previously reported” value in series [2] is around 9%.
Turning to `CC1=C(/C=C/C(C)=C/C=C/C(C)=C/C(=O)O)C(C)(C)CCC1` [RA, retinoic acid], the “encapsulation efficiency, previously reported” value in [2] is recorded as 60.0%; in [2] (listed as retinoic acid), around 60%. Also, the “cumulative RA release from PCL microspheres” value in [11] (day 28, RA concentration 7.5 times greater) was around 53%; in [11] (day 28, lower RA concentration) it was 28%.
